{"source": "paper PMC12477777", "about": "“Human exposure to green spaces and monoterpenes: discovery and use of α-pinene metabolites as biomarkers” (Environment international, 2025)", "origin": "cited, not measured here", "conditions": "α-pinene in blood; ref Falk et al., 1990; cited from earlier work"}
{"smiles": "CC1=CCC2CC1C2(C)C", "note": "(stereo not drawn) [α-pinene, α-Pinene]", "values": [{"measurement": "Blood half-life (t1/2α)", "result": "~ 5 min"}]}
